Source: US20260103474A1, “NOVEL COMPOUNDS FOR THE DIAGNOSIS OF TDP-43 PROTEINOPATHIES” (AC IMMUNE SA, priority 2022, published 2026)
pKd: −log10 of the molar value.

Columns and labels:
[1] = target: human FTD Type A sarkosyl-insoluble brain extracts (Homo sapiens, UniProt Q13148); assay: Kd determination by micro-radiobinding assay on FTD Type A extracts; type: binding; settings: tritiated compound 1.29 to 300 nM
Protocol: Human brain extracts were prepared as described in Laferriere et al., 2019, Nature Neurosc. A sample of brain tissue (frontal or temporal cortex) was homogenized at 1:4 (w/v) ratio in the homogenization-solubilization (HS) buffer at 4° C. using tissue homogenizer (Precellys) with CKmix homogenization tubes. The following sequence was used for homogenization: 3 cycles of 30 seconds at 5000 rpm (with 15 seconds pause between each cycle). Homogenized samples were aliquoted and stored at −80° C. in 1.5 mL low protein binding tubes.
Brain homogenates were thawed on ice and resuspended in HS buffer to obtain a final concentration of 2% sarkosyl, 1 unit/μL Benzonase and 1 mM MgCl2. The samples were then incubated at 37° C. under constant shaking at 600 rpm on a thermomixer for 45 minutes (min). The supernatants were collected in a new tube (sarkosyl-soluble fraction, S1). The pellet was resuspended in 1000 μL of myelin floatation buffer and centrifuged at 20,000 g for 60 min at 4° C. The supernatant was carefully removed to remove all the floating lipids. This step was repeated if all the lipids could not be removed in a single step. The pellet was subsequently washed with Phosphate-Buffered Saline (PBS) and centrifuged for 30 min at 20,000 g at 4° C. The final pellet was resuspended in 200 μL PBS and stored at −80° C. (sarkosyl-insoluble fraction). The samples were analyzed by immunoblotting in denaturing conditions.
Human FTD sarkosyl-insoluble brain extracts were spotted onto microarray slides. The slides were incubated with [^3H]-Compounds 1, 7, 8, 9, 15, 16 and 17 in a range of concentrations, varying from 1.29 to 300 nM. After incubation, slides were washed and scanned by a real-time autoradiography system (BeaQuant, ai4R). Quantification of the signal was performed by using the Beamage image analysis software (ai4R). Non-specific signal was determined with an excess of non-radiolabeled compound 1, 7, 8, 9, 15, 16 and 17 (1 μM), respectively, and specific binding was calculated by subtracting the non-specific signal from the total signal.
The Kd (Dissociation constant) and R^2 (parameter ranging between 0.0 and 1.0 that quantifies the goodness of fit, and the best curve fit obtained with value of 1.0) were obtained by fitting the specific binding data with non-linear regression analysis, using a one-site specific binding model in GraphPad Prism8.

TDP-43 aggregates = TDP-43 aggregates (Homo sapiens, UniProt Q13148); assay: Micro-autoradiography staining in brain sections from patients with FTD; type: binding; set-up: from tissue; host or cells: frozen post-mortem human brain sections (FTLD-TDP type A and type B; non-demented controls in the classical autoradiography); settings: FTLD-TDP type A brain sections; 120 nM
Protocol: All tissues were collected from donors for or from whom a written informed consent for a brain autopsy and the use of the material and clinical information for research purposes had been obtained by the respective brain banks. All samples were anonymized and coded. Frozen brain tissue blocks with confirmed TDP-43 pathology upon autopsy were processed using a cryotome to generate sections of 10 μm in thickness and mounted on glass slides. Sections were kept at −80° C. until use.
Brain sections were immunostained using a commercially available antibody, specific for phosphorylated serine at amino acid 409/410 (anti-pTDP-43 pS409/410, Biolegend, 829901). Sections were fixed for 15 minutes at 4° C. with 4% formaldehyde (Sigma, 252549) and washed three times for height minutes with 1×PBS (Dulbecco's phosphate buffered saline, Sigma D1408) at room temperature. Next, sections were saturated and permeabilized in blocking buffer (PBS, 10% normal goat serum (NGS), 0.25% Triton X-100) for one hour at room temperature and incubated overnight at 4° C. with primary antibody against pTDP-43 (diluted at 1/500 in PBS, 5% NGS, 0.25% Triton X-100). The following day, sections were washed three times for height minutes with 1×PBS before incubation with a secondary, AlexaFluor633-labeled goat-anti-rat antibody (Invitrogen, A-21094, diluted at 1/500 in PBS) for 45 minutes at room temperature. Following incubation with […] antibodies the sections were washed three times in PBS before being processed further.
For micro-autoradiography, tritiated test compound ([^3H]-Compound 1, [^3H]-Compound 9 or [^3H]-Compound 17 respectively) was incubated on the sections at 120 nM in 50 mM Tris buffer pH 7.4 for 45 minutes at room temperature. Sections were then washed as follows: once in ice-cold 50 mM Tris-HCl pH 7.4 buffer for one minute, twice in ice-cold 70% ethanol for one minute, once in ice-cold 50 mM Tris-HCl pH 7.4 buffer for one minute and finally rinsed briefly in ice-cold distilled water. Sections were subsequently dried for one hour under a stream of air and then exposed to Ilford Nuclear Emulsion Type K5 (Agar Scientific, AGP9281) for ten days at 4° C. in a light-proof slide storage box. The sections were developed by immersing them successively in the following solutions: 1.) Ilford Phenisol Developer (1:5 dilution in H2O, Agar Scientific, AGP9106) for four minutes, 2.) Ilfostop solution (1:20 dilution in H2O, Agar Scientific, AGP9104) for two minutes, 3.) Ilford Hypam Fixer (1:5 dilution in H2O, Agar Scientific, AGP9183) for four minutes and finally rinsed with H2O for 10 minutes.
For image acquisition, sections were mounted using ProLong Gold Antifade reagent (Invitrogen P36930) and imaged on a Panoramic250 Slide Scanner (3DHistech) with a 40× objective capturing brightfield and fluorescent images separately or on a Panoramic Scan II (3DHistech) with a 20× objective. The Visiopharm image analysis software suite was used to align the fluorescent image with the brightfield image.

[2] = PK studies in healthy monkey (PET); type: in vivo; settings: iv, Non-Human Primate; for Time of brain entry post injection / Washout: peak to half peak: whole brain
Protocol: Non-Human Primate (NHP) was injected intravenously (iv) with the [^18F]-labeled Compound 1 ([^18F]Compound 1) (4.2 mCi) or with the [^18F]-labeled Compound 17 ([^18F]-Compound 17) (5.3 mCi). Monkey PET scans were performed using a Siemens Focus 220. PET acquisition started immediately before the radioactive dose was injected. Images were generated as dynamic scans for 120 minutes with head focused.

Sequence of TDP-43 aggregates (Q13148 whole entry): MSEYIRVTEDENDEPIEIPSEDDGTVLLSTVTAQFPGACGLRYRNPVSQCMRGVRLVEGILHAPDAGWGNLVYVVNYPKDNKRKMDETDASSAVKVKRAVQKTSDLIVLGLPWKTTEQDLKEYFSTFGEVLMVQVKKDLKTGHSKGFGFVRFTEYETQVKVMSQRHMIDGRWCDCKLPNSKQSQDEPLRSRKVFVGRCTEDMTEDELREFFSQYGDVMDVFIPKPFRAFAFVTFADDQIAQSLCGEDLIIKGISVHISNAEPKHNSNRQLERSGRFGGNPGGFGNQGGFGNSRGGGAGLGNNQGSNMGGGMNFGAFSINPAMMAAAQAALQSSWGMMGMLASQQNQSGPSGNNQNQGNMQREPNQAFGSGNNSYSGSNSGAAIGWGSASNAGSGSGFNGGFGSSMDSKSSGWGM
Sequence of human FTD Type A sarkosyl-insoluble brain extracts (Q13148 263-414 limits assumed): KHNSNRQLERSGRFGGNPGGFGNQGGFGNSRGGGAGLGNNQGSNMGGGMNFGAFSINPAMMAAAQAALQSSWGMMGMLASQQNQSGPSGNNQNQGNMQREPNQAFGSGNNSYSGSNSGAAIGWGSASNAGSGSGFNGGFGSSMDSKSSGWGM

SMILES	pKd [1]	Micro-autoradiography silver grain signal versus pTDP-43 immunostaining (TDP-43 aggregates)	SUVmax whole brain [2] [SUVmax]	Time of brain entry post injection [2] [min]	Washout: peak to half peak [2] [min]
[3H]c1cncc(N2CCc3nc(-c4cc([3H])c(N5CCCC5)nc4F)sc3C2=O)c1 [[^3H]-Compound 9, Tritiated 2-(2-fluoro-6-(pyrrolidin-1-yl)pyridin-3-yl)-5-(pyridin-3-yl)-6,7-dihydrothiazolo[5,4-c]pyridin-4(5H)-one]	7.59	colocalization with pTDP-43 aggregates	–	–	–
O=C1c2sc(-c3ccc(N4CC[C@@H]([18F])C4)nc3F)nc2CCN1c1cccnc1 [[^18F]-Compound 1, fluorinated 2-[2-fluoro-6-[(3R)-3-fluoropyrrolidin-1-yl]-3-pyridyl]-5-(3-pyridyl)-6,7-dihydrothiazolo[5,4-c]pyridin-4-one]	–	–	2.7	5.5	< 17
O=C1c2sc(-c3ccc(N4CCC(CO)CC4)nc3[18F])nc2CCN1c1cccnc1 [[^18F]-Compound 17, 2-(2-(fluoro-^18F)-6-(4-(hydroxymethyl)piperidin-1-yl)pyridin-3-yl)-5-(pyridin-3-yl)-6,7-dihydrothiazolo[5,4-c]pyridin-4(5H)-one]	–	–	1.1	4.5	< 13
